Test results as given in US20220175781A1, “CD40L COMPOSITIONS AND METHODS FOR TUNABLE REGULATION” (Obsidian Therapeutics, Inc., priority 2019, published 2022).
Blank lines part the entries; values can stand above or below the molecule they belong to.

Experiments:
[1] = system: T cells; experiment: Dose response of TMP, Bazedoxifene or Raloxifene, % CD40L positive T cells; assay type: cell-based; conditions: T cells expressing OT-001666
Description: T cells were transduced with OT-001662 or OT-001666. On day 4, cells were treated with increasing doses of TMP for T cells expressing OT-001662. Cells expressing OT-001666 were treated either with increasing concentrations of Bazedoxifene or Raloxifene. The data are shown in Table 30 as the percentage of CD40L positive T cells.

[2] = target: CD40 (UniProt P25942); experiment: cell-based or functional assay
Chain of CD40 (P25942 21-277 limits assumed): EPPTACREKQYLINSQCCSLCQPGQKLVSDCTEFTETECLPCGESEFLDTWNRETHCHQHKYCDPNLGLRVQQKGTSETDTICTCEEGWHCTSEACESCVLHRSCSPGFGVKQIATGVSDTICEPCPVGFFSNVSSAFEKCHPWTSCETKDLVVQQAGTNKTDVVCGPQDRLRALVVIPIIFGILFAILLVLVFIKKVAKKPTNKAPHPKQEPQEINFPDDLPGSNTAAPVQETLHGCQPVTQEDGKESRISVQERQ

[3] = system: T cells (CD4+ and CD8+ subsets); experiment: Vardenafil dose response of CD40L surface expression in T cells, CD4+ and CD8+ subsets; assay type: cell-based; design: key to SR: ratio of CD40L expression with vardenafil to expression without it; conditions: OT-001892 transduced T cells
Description: T cells were transduced with 10 μL of lentivirus corresponding to OT-001892. 4 days after transduction, cells were treated with increasing concentrations of ligand (Vardenafil) or vehicle control for 24 hours. Surface expression of CD40L in T cells as well as the CD4+ and CD8+ subsets was analyzed by FACS. The stabilization ratio (SR) may be defined as the ratio of expression, CD40L in response to vardenafil to the expression of CD40L in the absence of vardenafil.

[4] = system: T cells (CD4 and CD8 positive); experiment: Bazedoxifene dose response, CD40L MFI in CD4 and CD8 positive T cells (day 4, freeze/thaw, restimulation); assay type: cell-based; conditions: T cells, Bazedoxifene dose response
Description: Dose response with Bazedoxifene in T cells were conducted for OT-001966, OT-001967, OT-001666. Expression of CD40L was measured at (a) day 4 after transduction, (b) after freezing and thawing the cells or (c) after freezing and thawing the cells followed by restimulation with CD3/CD28 beads. The CD40L MFI (median fluorescence intensity) within CD4 and CD8 positive subpopulations is shown in Table 34 and Table 35 respectively.

[5] = system: T cells (CD4 and CD8); experiment: Cleavage resistant CD40L expression and TMP regulation in T cells; assay type: cell-based; conditions: T cells, 10 μM TMP 24 hours, CD4 and CD8 populations
Description: T cells were transduced with OT-001668 and on day 4, the percentage of CD40L expressing T cells (within the both CD4 and CD8) subpopulations was calculated.
T cells were transduced with ecDHFR regulated construct OT-001671 that include a CD40L protein that was resistant to cleavage. On day 4 cells were treated with 10 μM TMP for 24 hours. […] In an independent experiment, T cells transduced with varying volumes of virus corresponding to OT-001671 were treated with increasing doses of TMP for 24 hours. In Table 41, 0.5 μL, 2 μL, and 10 μL indicate the different volumes of virus that were used.

[6] = All Cells, Vardenafil 0.0001 μM
[7] = CD4+ Cells, Vardenafil 0.0001 μM
[8] = CD4+ Cells, Vardenafil 0.001 μM
[9] = CD8+ Cells, Vardenafil 0.0001 μM
[10] = CD8+ Cells, Vardenafil 0.001 μM

Molecule: O=C(c1ccc(OCCN2CCCCC2)cc1)c1c(-c2ccc(O)cc2)sc2cc(O)ccc12 [Raloxifene]
Percent of cells expressing CD40L ([1]; Dose 0.0001 μM): 4.67%
Percent of cells expressing CD40L ([1]; Dose 0.001 μM): 5.01%
Percent of cells expressing CD40L ([1]; Dose 0.01 μM): 5%
Percent of cells expressing CD40L ([1]; Dose 0.1 μM): 5.18%
Percent of cells expressing CD40L ([1]; Dose 1 μM): 7.1%

Molecule: Cc1c(-c2ccc(O)cc2)n(Cc2ccc(OCCN3CCCCCC3)cc2)c2ccc(O)cc12 [Bazidoxefene]
Percent of cells expressing CD40L ([1]; Dose 0.0001 μM): 4.88%
Percent of cells expressing CD40L ([1]; Dose 0.001 μM): 5.17%
Percent of cells expressing CD40L ([1]; Dose 0.01 μM): 5.42%
Percent of cells expressing CD40L ([1]; Dose 0.1 μM): 7.67%
Percent of cells expressing CD40L ([1]; Dose 1 μM): 13.5%

IFNg (pg/ml), 2-day co-culture of transduced T cells with mDC, DMSO (DRD not stabilised) [2]: 3790 pg/mL
IFNg (pg/ml), 2-day co-culture of transduced T cells with mDC, TMP (0.1 µM) [2]: 7430 pg/mL
IFNg (pg/ml), 2-day co-culture of transduced T cells with mDC, TMP (0.5 µM) [2]: 3590 pg/mL
IFNg (pg/ml), 2-day co-culture of transduced T cells with mDC, TMP (2 µM) [2]: 16400 pg/mL
IFNg (pg/ml), 2-day co-culture of transduced T cells with mDC, TMP (10 µM) [2]: 13500 pg/mL
IL12 (pg/ml), 2-day co-culture of transduced T cells with mDC, DMSO (DRD not stabilised) [2]: 0.254 pg/mL
IL12 (pg/ml), 2-day co-culture of transduced T cells with mDC, TMP (0.1 µM) [2]: 0.0705 pg/mL
IL12 (pg/ml), 2-day co-culture of transduced T cells with mDC, TMP (2 µM) [2]: 19.4 pg/mL
IL12 (pg/ml), 2-day co-culture of transduced T cells with mDC, TMP (10 µM) [2]: 59.3 pg/mL
SEAP reporter of HEK-Blue CD40 cells co-cultured 24 hours with transduced Jurkat cells plus 50 µM TMP, given as Soluble CD40L (pg/ml) against a recombinant soluble CD40L standard [2]: 8660 pg/mL
TNFa (pg/ml), 2-day co-culture of transduced T cells with mDC, DMSO (DRD not stabilised) [2]: 82.3 pg/mL
TNFa (pg/ml), 2-day co-culture of transduced T cells with mDC, TMP (0.1 µM) [2]: 131 pg/mL
TNFa (pg/ml), 2-day co-culture of transduced T cells with mDC, TMP (0.5 µM) [2]: 83.9 pg/mL
TNFa (pg/ml), 2-day co-culture of transduced T cells with mDC, TMP (2 µM) [2]: 249 pg/mL
TNFa (pg/ml), 2-day co-culture of transduced T cells with mDC, TMP (10 µM) [2]: 251 pg/mL
Molecule: OT-001662 (Met; Linker (SG); ecDHFR (M1del, R12Y, Y100I); Histidine residue; CD40L; stop) (ligand)

Molecule: CCCc1nc(C)c2c(=O)[nH]c(-c3cc(S(=O)(=O)N4CCN(CC)CC4)ccc3OCC)nn12 [Vardenafil]
MFI [3, 6]: 274
SR [3, 6]: 1.31
MFI ([3]; All Cells, Vardenafil 0.001 μM): 260
SR ([3]; All Cells, Vardenafil 0.001 μM): 1.24
MFI ([3]; All Cells, Vardenafil 0.01 μM): 265
SR ([3]; All Cells, Vardenafil 0.01 μM): 1.27
MFI ([3]; All Cells, Vardenafil 0.1 μM): 311
SR ([3]; All Cells, Vardenafil 0.1 μM): 1.49
MFI ([3]; All Cells, Vardenafil 1 μM): 405
SR ([3]; All Cells, Vardenafil 1 μM): 1.94
MFI ([3]; All Cells, Vardenafil 10 μM): 747
SR ([3]; All Cells, Vardenafil 10 μM): 3.57
MFI ([3]; All Cells, Vardenafil 100 μM): 1168
SR ([3]; All Cells, Vardenafil 100 μM): 5.59
MFI [3, 7]: 313
SR [3, 7]: 1.38
MFI [3, 8]: 291
SR [3, 8]: 1.28
MFI ([3]; CD4+ Cells, Vardenafil 0.01 μM): 304
SR ([3]; CD4+ Cells, Vardenafil 0.01 μM): 1.34
MFI ([3]; CD4+ Cells, Vardenafil 0.1 μM): 359
SR ([3]; CD4+ Cells, Vardenafil 0.1 μM): 1.58
MFI ([3]; CD4+ Cells, Vardenafil 1 μM): 482
SR ([3]; CD4+ Cells, Vardenafil 1 μM): 2.12
MFI ([3]; CD4+ Cells, Vardenafil 10 μM): 930
SR ([3]; CD4+ Cells, Vardenafil 10 μM): 4.10
MFI ([3]; CD4+ Cells, Vardenafil 100 μM): 1367
SR ([3]; CD4+ Cells, Vardenafil 100 μM): 6.02
MFI [3, 9]: 166
SR [3, 9]: 1.15
MFI [3, 10]: 166
SR [3, 10]: 1.15
MFI ([3]; CD8+ Cells, Vardenafil 0.01 μM): 162
SR ([3]; CD8+ Cells, Vardenafil 0.01 μM): 1.13
MFI ([3]; CD8+ Cells, Vardenafil 0.1 μM): 171
SR ([3]; CD8+ Cells, Vardenafil 0.1 μM): 1.19
MFI ([3]; CD8+ Cells, Vardenafil 1 μM): 186
SR ([3]; CD8+ Cells, Vardenafil 1 μM): 1.29
MFI ([3]; CD8+ Cells, Vardenafil 10 μM): 340
SR ([3]; CD8+ Cells, Vardenafil 10 μM): 2.36
MFI ([3]; CD8+ Cells, Vardenafil 100 μM): 620
SR ([3]; CD8+ Cells, Vardenafil 100 μM): 4.31

cell health [4]: affected cell health at highest dose
Molecule: Cc1c(-c2ccc(O)cc2)n(Cc2ccc(OCCN3CCCCCC3)cc2)c2ccc(O)cc12 [Bazedoxifene, reference compound]

B1: OT-001671: ecDHFR regulated construct that includes a CD40L protein resistant to cleavage (protein)
chain: MSGISLIAALAVDYVIGMENAMPWNLPADLAWFKRNTLNKPVIMGRHTWESIGRPLPGRKNIILSSQPGTDDRVTWVKSVDEAIAACGDVPEIMVIGGGRVIEQFLPKAQKLYLTHIDAEVEGDTHFPDYEPDDWESVFSEFHDADAQNSHSYCFEILERRHMIETYNQTSPRSAATGLPISMKIFMYLLTVFLITQMIGSALFAVYLHRRLDKIEDERNLHEDFVFMKTIQRCNTGERSLSLLNCEEIKSQFEGFVKDIMLNKEETKKENDQNPQIAAHVISEASSKTTSVLQWAEKGYYTMSNNLVTLENGKQLTVKRQGLYYIYAQVTFCSNREASSQAPFIASLCLKSPGRFERILLRAANTHSSAKPCGQQSIHLGGVFELQPGASVFVNVTDPSQVSHGTGFTSFGLLKL
TMP-mediated regulation of CD40L expression [5]: TMP-mediated Regulation of CD40L expression was observed
